Reference: patent US10780092B2, “Fused pyrazine derivatives useful as soluble guanylate cyclase stimulators” (Merck Sharp & Dohme Corp., priority 2016, dated 2020)

Columns and labels:
sGC α1/β1 heterodimer = sGC α1/β1 heterodimer (Homo sapiens (Human), UniProt Q02108+Q02153); experiment: Cell-based sGC functional assay (CASA assay), cGMP by HTRF; conditions: CHO-K1/sGC cells; for Emax: CHO-K1, cGMP production as percentage of maximum of compound A (set to 100%), read-out: % Activation; for EC50: inflection point of cGMP production, 4P fit, read-out: IP
In short: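 cGMP made in CHO-K1/sGC (human α1/β1) cells is read by HTRF after compound treatment for 1 hr at 37° C, following 30 min at 25° C with or without 1 μM DETA-NO; IBMX 0.5 mM present. Values are % of standard compound maximum; 4P fit.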

[1] = target: human recombinant sGC enzyme (Homo sapiens (Human), UniProt Q02108+Q02153); experiment: SEC competition binding assay with [3H] Compound B radioligand; conditions: displacement of 1.6 nM [3H] Compound B, 24 h at 37° C.
In short: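 Competition format: [3H] Compound B (1.6 nM) displaced from human recombinant sGC over 24 h at 37° C. in triethanolamine pH 7.4 buffer with MgCl2, BSA, DTT, 300 μM DETA/NO and 400 μM GTP (1% DMSO). Gel-filtration eluates counted by liquid scintillation; 1 μM Compound B defined non-specific binding; Ki by one-site fit.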

[2] = tested on: hypoxia-induced pulmonary hypertension in rat; experiment: Acute efficacy in hypoxia-induced pulmonary hypertension in rat following intratracheal (IT) administration; assay type: in vivo; conditions: decrease in SBP at dose giving decrease in PAP ≥15 mmHg
Excerpt: Acute Efficacy in Hypoxia-Induced Pulmonary Hypertension in Rat Following Intratracheal (IT) Administration Charles River Sprague-Dawley (CD) male rats weighing approximately 350 g were implanted with HD-S21 dual pressure telemetry transmitters (Data Sciences International (DSI)) into the pulmonary artery and femoral artery. This transmitter enables simultaneous measurement of both pulmonary and systemic hemodynamic parameters in the same animal. After a 7-10 day post-operative recovery period, animals were subjected to a normobaric hypoxic (10% oxygen) environment using a Higher Peak Mountain Air Generator (MAG-10) connected to a modified rodent cage via a fitted inlet port. Oxygen (at 10%), temperature, humidity, and CO2 were controlled within normal range and animals were maintained on a 12 hour light-dark cycle with ad libitum access to food and water. After two weeks exposure to 10% O2 hypoxic environment, systolic pulmonary arterial pressure readings increased from ˜25 mmHg to greater than 50 mmHg. Using a 48 hour baseline average, animals with readings between 50-110 mmHg (standard deviation of less than 10 mmHg) and minimal changes in systolic systemic blood pressure were enrolled for study. Animals were utilized for up to 2 studies per week for 4 weeks with a minimum of 2 days washout between doses of test agent. Compound or vehicle was administered intra-tracheally under light isoflurane anesthesia (5% in oxygen; flow rate 2.0 L/min for 3 minutes). Once anesthetized, rats were placed on an angled intubation stand in supine position and the trachea visualized using a small laryngoscope. Animals then received either 0.5 mL/kg of vehicle or 0.5 mL/kg vehicle containing compound intra-tracheally delivered via microsprayer by use of a Penn-Century Microsprayer® needle 3″ (Model IA-1B-GP) attached to a 1 mL high pressure syringe (Penn Century-Model B—SYR-PL1000) (Penn-Century, Philadelphia, Pa.). The Microsprayer® tip was inserted into the trachea up to the point at which the bend in the needle is close to the tip of the snout, which positions the tip of the Microsprayer® in front of the carina (bifurcation of trachea at the bronchi). After dose delivery the animal is placed on its back in the home cage for recovery. Hemodynamic measurements were continuously recorded and readings consolidated to hourly moving averages. Each animal received a vehicle on Day 1 followed by vehicle or test agent on Day 2. Change from vehicle baseline was calculated by subtracting the hourly Day 1 vehicle response from the hourly Day 2 response and treatment group data was expressed as mean±SEM. Decreases of systolic blood pressure (SBP) and systolic pulmonary arterial pressure (PAP) were measured at a particular IT dose (mpk milligrams per kilogram) for the following Example compounds. Compounds in the Table 13 achieved a minimum decrease in PAP of ≥15 mmHg for the corresponding decrease in SBP listed.

Row | Compound | Emax (sGC α1/β1 heterodimer) [%] | EC50 (sGC α1/β1 heterodimer) [nM] | Ki [1] [nM] | Category (decrease in SBP) ([2]; IT dose 0.03 mpk) | Category (decrease in SBP) ([2]; IT dose 0.01 mpk) | Category (decrease in SBP) ([2]; IT dose 0.3 mpk)
1 | CC(C)CCc1nc(-c2nc(N)c3c(n2)NC(=O)C3(C)c2ccc(Cl)c(O)c2)cn2ccnc12 (stereo not shown) [Example 25-A, 4-Amino-5-(4-chloro-3-hydroxyphenyl)-2-(8-isopentylimidazo[1,2-a]pyrazin-6-yl)-5-methyl-5,7-dihydro-6H-pyrrolo[2,3-d]pyrimidin-6-one] | 117 | 223 | 0.252 | B (decrease in SBP 5-10 mmHg) | – | –
2 | CC1(c2cccc(O)c2)C(=O)Nc2nc(-c3cn4ccnc4c(Cc4cc(F)ccc4F)n3)nc(N)c21 (stereo not shown) [Example 11-B, 4-Amino-2-{8-[(2,5-difluorophenyl)methyl]imidazo[1,2-a]pyrazin-6-yl}-5-(3-hydroxyphenyl)-5-methyl-5,7-dihydro-6H-pyrrolo[2,3-d]pyrimidin-6-one] | 137 | 503 | 0.135 | – | B (decrease in SBP 5-10 mmHg) | –
3 | CC1(c2cc(O)c(Cl)cn2)C(=O)Nc2nc(-c3cn4ccnc4c(Cc4cccc(F)c4)n3)nc(N)c21 (stereo not shown) [Example 51-B, 4-Amino-5-(5-chloro-4-hydroxypyridin-2-yl)-2-{8-[(3-fluorophenyl)methyl]imidazo[1,2-a]pyrazin-6-yl}-5-methyl-5,7-dihydro-6H-pyrrolo[2,3-d]pyrimidin-6-one] | 88 | 1020 | 0.874 | A (decrease in SBP 0-5 mmHg) | – | –
4 | CC1(c2ccc(F)c(O)c2)C(=O)Nc2nc(-c3cn4ccnc4c(Cc4ccccc4F)n3)nc(N)c21 (stereo not shown) [Example 13-B, 4-Amino-5-(4-fluoro-3-hydroxyphenyl)-2-{8-[(2-fluorophenyl)methyl]imidazo[1,2-a]pyrazin-6-yl}-5-methyl-5,7-dihydro-6H-pyrrolo[2,3-d]pyrimidin-6-one] | 100 | 821 | 0.154 | – | A (decrease in SBP 0-5 mmHg) | –
5 | CC1(c2ccc(Cl)c(O)c2)C(=O)Nc2nc(-c3cn4ccnc4c(Cc4cccc(F)c4)n3)nc(N)c21 (stereo not shown) [Example 1-A, 4-Amino-5-(4-chloro-3-hydroxyphenyl)-2-{8-[(3-fluorophenyl)methyl]imidazo[1,2-a]pyrazin-6-yl}-5-methyl-5,7-dihydro-6H-pyrrolo[2,3-d]pyrimidin-6-one] | 118 | 226 | 0.095 | – | A (decrease in SBP 0-5 mmHg) | –
6 | CC1(c2cc(O)c(Cl)cn2)C(=O)Nc2nc(-c3cn4ccnc4c(Cc4ccccc4F)n3)nc(N)c21 (stereo not shown) [Example 4-B, 4-Amino-5-(5-chloro-4-hydroxypyridin-2-yl)-2-{8-[(2-fluorophenyl)methyl]imidazo[1,2-a]pyrazin-6-yl}-5-methyl-5,7-dihydro-6H-pyrrolo[2,3-d]pyrimidin-6-one] | 136 | 1920 | 0.259 | A (decrease in SBP 0-5 mmHg) | – | –
7 | CC1(c2ccc(O)c(F)c2)C(=O)Nc2nc(-c3cn4ccnc4c(CCC(F)(F)C(F)(F)F)n3)nc(N)c21 (racemic) [Example 117-B, 4-Amino-5-(3-fluoro-4-hydroxyphenyl)-5-methyl-2-(8-(3,3,4,4,4-pentafluorobutyl)-imidazo[1,2-a]pyrazin-6-yl)-5,7-dihydro-6H-pyrrolo[2,3-d]pyrimidin-6-one] | 94 | 109 | 8.55 | – | – | C (decrease in SBP >10 mmHg)
8 | CC1(c2cc(O)c(Cl)cn2)C(=O)Nc2nc(-c3cn4ccnc4c(Cc4cc(F)ccc4F)n3)nc(N)c21 (stereo not shown) [Example 94-B, 4-Amino-5-(5-chloro-4-hydroxypyridin-2-yl)-2-{8-[(2,5-difluorophenyl)methyl]imidazo[1,2-a]pyrazin-6-yl}-5-methyl-5,7-dihydro-6H-pyrrolo[2,3-d]pyrimidin-6-one] | 125 | 1260 | 0.149 | B (decrease in SBP 5-10 mmHg) | – | –
9 | CC1(c2ccc(O)c(Cl)c2)C(=O)Nc2nc(-c3cn4ccnc4c(Cc4ccccc4F)n3)nc(N)c21 (stereo not shown) [Example 28-B, 4-Amino-5-(3-chloro-4-hydroxyphenyl)-2-{8-[(2-fluorophenyl)methyl]imidazo[1,2-a]pyrazin-6-yl}-5-methyl-5,7-dihydro-6H-pyrrolo[2,3-d]pyrimidin-6-one] | 141 | 433 | 0.283 | – | B (decrease in SBP 5-10 mmHg) | –
10 | CC1(c2cc(O)c(Cl)c(F)c2)C(=O)Nc2nc(-c3cn4ccnc4c(Cc4ccccc4F)n3)nc(N)c21 (stereo not shown) [Example 2-B, 4-Amino-5-(4-chloro-3-fluoro-5-hydroxyphenyl)-2-{8-[(2-fluorophenyl)methyl]imidazo[1,2-a]pyrazin-6-yl}-5-methyl-5,7-dihydro-6H-pyrrolo[2,3-d]pyrimidin-6-one] | 89 | 1620 | 0.095 | – | A (decrease in SBP 0-5 mmHg) | –
